Data published in US20250381163A1, “Chelating Agents for Use in Cancer Therapy” (priority 2022, published 2025).
Entries after “also recorded” stand apart in the source; their conditions may differ.

Tests used:
Beas-2B cells = assay: Resazurin cell survival assay, metal-induced chemoresistance and chelators; format: cell-based; details: for Reversal of metal-induced chemoresistance to doxorubicin, non-saturating chelator dose: DMPS 40 μM, EDTA 20 μM, FIG. 5
Protocol: (§1) Resazurin cell survival assays were used to determine cell survival upon chemotherapeutic and chelator challenge. 2×10^3 cells were seeded in 100 μl in 96 well plates. 24 hrs later medium was replaced with 90 μl of metal mixtures or control medium for another 24 hrs. Next a combination of chelators and chemotherapy as indicated in the figures was prepared and added as an additional 10 μl to the cells. Cells were then incubated for 72 hr (Beas-2B) or 96 hr (A549 and MCF7). A stock solution of resazurin (Sigma) was made as 880 μM in PBS adjusted to pH 7.8/filtered 0.2 μm and kept for 6 months at 4° C. Medium was replaced with 75 μl of resazurin solution (final concentration 44 μM). Cells were incubated at 37° C. for 3-4 hrs and fluorescence emission was measured at 583 nm with excitation at 555 nm using a spectrophotometer (Beckman). To test the effects of metals on doxorubicin directly, doxorubicin was incubated with metals in solution 24 hrs as a 10× solution, prior to adding to cells, whereas control cells were incubated in metals as described before.
IC50 values were calculated using Graphpad Prism. Error bars represent standard deviation of triplicate measurements.

BxPC-3 cells = assay: Cell survival assay, metal exposure and chelation treatment; format: cell-based; details: BxPC3 pre-treated with metals 1:128; for Reversal of metal-induced chemoresistance to 5-FU: 150 μM chelator and 5-FU for 72 hrs, FIG. 17; for Effect of chelator on resistance/survival with nab-paclitaxel: 150 μM chelator and nab-paclitaxel for 72 hrs, FIG. 18
Protocol: as §1
Overall, the methods disclosed in the first example were used in the second example as well.

p53 [1] = assay: p53 folding status in cells (immunoprecipitation with folding antibodies / western blot); format: cell-based; details: Beas-2B cells incubated with metals in presence or absence of chelator; FIG. 20, 21
Protocol: (§2) Cells were seeded in 6 well plates at 30% cell density. 24 hrs later, medium was replaced with the metal mixtures as indicated. Cells were incubated for 24 hrs and lysed with 100 μl NP-40 lysis buffer (100 mM NaCl 100 mM Tris pH8, 1% NP-40) for 15 min on ice. Cell pellets were discarded in centrifugation (10 min max) and 10% of input was taken for western blot and mixed with 4×SB. The remaining lysate was subjected to immunoprecipitation with p53 Ab240 Ab (1 ul per condition) using 30 μl NP-40 buffer washed goat-anti-mouse magnetic Dynabeads (Thermo Fisher). Lysates and beads were tumbled at 4° C. for 2 hrs and washed 3× with NO-40 buffer. Beads were taken up in 2×SB and together with inputs denatured at 95° C. in a heat block. 8% SDS page gels were used to run all of the samples on western blot. Gels were transferred on nitrocellulose membrane, blocked with milk (TBS-Tween) for 1 hr tumbling and incubated in p53 DO-1 (Santa Cruz Ab, 1:2000) ON at 4° C. The membrane was washed 3× with TBS-tween and secondary Ab (anti-mouse 700, Li-Cor) was used 1:10.000 to incubate the blot for 1 hr at room temperature. The blot was washed with TBS-tween 3× and the signal was measured in a Li-Cor Odyssey. Quantification was measured in the software of Li-Cor and plotted corrected for input levels of each sample.

A549 lung cancer cells = assay: Resazurin cell survival assay, metal-induced chemoresistance and chelators; format: cell-based; design: dose or concentration left out as unconfirmed; details: FIG. 3C
Protocol: as §1

MCF7 breast cancer cells = assay: as above; format: cell-based; design: dose or concentration left out as unconfirmed; details: FIG. 3B
Protocol: as §1

A549 p53 KO cells = assay: Resazurin cell survival assay in p53 KO clone; format: cell-based; details: p53 KO clone of A549; DMPS (150 μM); doxorubicin; FIG. 3D
Protocol: A549, MCF7 and Beas-2B cells were obtained from ATCC (https://www.atcc.org). Cells were maintained in DMEM high Glucose (Invitrogen) and 10% FCS (Gibco) at 37° C. and 5% CO2. A549 p53 KO cells were generated using a CRISPR p53 KO construct (pLV-U6g-EPCG with target sequence TCCATTGCTTGG GACGGCAAGG, Sigma). Cell lines were selected for GFP expression using FACS sorting followed by clonal selection in neomycin (600 ng/ml, Sigma).
as §1, with “To test the effects of metals on doxorubicin directly, doxorubicin was incubated with metals in solution 24 hrs as a 10× solution, prior to adding to cells, whereas control cells were incubated in metals as described before.” left out

H2170 cells = assay: Cell survival assay, metal exposure and chelation treatment; format: cell-based; details: H2170 pre-treated with metals 1:128, then DMPS and doxorubicin for 72 hrs; FIG. 16
Protocol: as §1
Overall, the methods disclosed in the first example were used in the second example as well. […]
(§3) Hep3B and H2177 cells were obtained from ATCC and were maintained in DMEM high Glucose (Invitrogen) and 10% FCS (Gibco) at 37° C. and 5% CO2. […] Cells were subsequently counted and added to 96 well plates for survival assays as previously described. […]

p53 [2] = format: biochemical; details: Beas-2B lysates with metals 30 min, then chelator 1 hr; naïve and loaded lysates; FIG. 23
158 mutant p53 = assay: p53 folding in transfected Hep3B cells; format: cell-based; details: Hep3B transfected with 158 mutant p53; metals followed by miaDMSA; FIG. 22
Protocol: as §2, with “The membrane was washed 3× with TBS-tween and secondary Ab (anti-mouse 700, Li-Cor) was used 1:10.000 to incubate the blot for 1 hr at room temperature.” left out
as §3

WT p53 = assay: p53 folding in transfected Hep3B cells; format: cell-based; details: Hep3B transfected with WT p53; metals followed by miaDMSA; FIG. 22
Protocol: as §2, with “The membrane was washed 3× with TBS-tween and secondary Ab (anti-mouse 700, Li-Cor) was used 1:10.000 to incubate the blot for 1 hr at room temperature.” left out
as §3

[3] = Beas-2B pre-treated with metals 1:128, then chelator and doxorubicin for 72 hrs, FIG. 14, 15
[4] = metal-loaded Beas-2B, DMPS 150 μM, EDTA 75 μM (equivalent chelation capacity), alone or combined, FIG. 4

With `O=C(O)C(S)C(S)C(=O)O` (centres unmarked) [DMSA, 2,3-dimercaptosuccinic acid] the “Reversal of metal-induced chemoresistance to doxorubicin” value (Beas-2B cells; [3]) was “only partially reversed”, the “Reversal of metal-induced chemoresistance to 5-FU” value (BxPC-3 cells) was “reversed” and the “Effect of chelator on resistance/survival with nab-paclitaxel” value (BxPC-3 cells) was “reduce survivability”. For the same compound, the “Prevention of metal-induced unfolding of p53” value (p53 [1]) was “prevents unfolding”.

With `O=S(=O)(O)CC(S)CS` (centres unmarked) [DMPS, 2,3-dimercapto-1-propanesulfonic acid] the “Restoration of sensitivity to doxorubicin (reversal of metal-induced chemoresistance)” value (Beas-2B cells; Beas2B cells primed with 1:128 and 1:256 metals, DMPS 150 μM, FIG. 3A) was “completely restored”, the “Reversal of metal-induced chemoresistance to doxorubicin, non-saturating chelator dose” value (Beas-2B cells; alone or combined) was “not able to restore chemosensitivity substantially” and the “Reversal of metal-induced chemoresistance to doxorubicin” value (Beas-2B cells; [4]) was “almost completely restored; also recorded: reversed chemoresistance completely”. For the same compound, the “Reversal of metal-induced chemoresistance to doxorubicin” value (A549 lung cancer cells) was “reversed the chemoresistance completely”, the “Reversal of metal-induced chemoresistance to doxorubicin” value (MCF7 breast cancer cells) was “reversed the chemoresistance completely” and the “Metal induced chemoresistance and its reversal by chelator” value (A549 p53 KO cells) was “less pronounced than in native A549 cells”. For the same compound, the “Reversal of metal-induced chemoresistance to doxorubicin” value (H2170 cells) was “only partially reversed” and the “Prevention of metal-induced unfolding of p53” value (p53 [1]) was “prevents unfolding”.

In the case of `O=C(O)CN(CCN(CC(=O)O)CC(=O)O)CC(=O)O` [EDTA, ethylenediaminetetraacetic acid], the “Reversal of metal-induced chemoresistance to doxorubicin, non-saturating chelator dose” value (Beas-2B cells; alone or combined) was “not able to restore chemosensitivity substantially”, the “Reversal of metal-induced chemoresistance to doxorubicin” value (Beas-2B cells; [4]) was “able to restore chemosensitivity although not to the extent as seen for DMPS; also recorded: reversed the resistance only partially” and the “Refolding of unfolded p53” value (p53 [2]) was “clearly able to refold some of the p53”.

`COc1cccc2c1C(=O)c1c(O)c3c(c(O)c1C2=O)C[C@@](O)(C(=O)CO)C[C@@H]3O[C@H]1C[C@H](N)[C@H](O)[C@H](C)O1` [doxorubicin] was tested, and the “IC50 of doxorubicin in metal-loaded cells relative to cells without added metals” value (Beas-2B cells; Beas-2B loaded with metals (1:128), FIG. 6) was “more than 10 times” and the IC50 of doxorubicin (Beas-2B cells; Beas-2B without added metals, FIG. 6) was “low”.

For `CC(C)CCOC(=O)[C@@H](S)[C@@H](S)C(=O)O` [miaDMSA, monoisoamylDMSA], the “Reversal of metal-induced chemoresistance to doxorubicin” value (Beas-2B cells; [3]) was “highly potent chelator; also recorded: completely reversed”, the “Reversal of metal-induced chemoresistance to 5-FU” value (BxPC-3 cells) was “reversed” and the “Effect of chelator on resistance/survival with nab-paclitaxel” value (BxPC-3 cells) was “reduce survivability; also recorded: reduction of resistance”. The “Refolding of unfolded p53” value (p53 [2]) was “clearly able to refold some of the p53”, the “Prevention of metal-induced unfolding of p53” value (158 mutant p53) was “prevented or reduced” and the “Prevention of metal-induced unfolding of p53” value (WT p53) was “prevented or reduced”.
